The record followed here is patent US12338237B2, “Derivatives having 1,2,3,4-tetrahydronaphthalene moiety or pharmaceutically acceptable salt thereof and pharmaceutical compositions comprising the same” (YUHAN CORPORATION, priority 2019, dated 2025).

The subject of one assay is GM1 production. In words: cells. The assay is classed as cell-based.
Assay [1] concerns the target glucosylceramide synthase (GCS) (Homo sapiens (Human), UniProt Q16739). As to the kind of experiment: Evaluation of inhibitory activities against GCS (enzyme reaction with A549 cell lysate, NBD C6-ceramide, HPLC fluorescence). It counts as biochemical. The conditions noted are these: GCS activity in A549 cell lysate, 37° C. for 90 minutes. A digest of the protocol:
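Lysate of A549 cells in 50 mM HEPES pH 7.3 incubated with test compound and NBD C6-ceramide at 37 °C for 90 min; lipids extracted with chloroform/methanol and GlcCer and ceramide peaks quantified by HPLC fluorescence. Activity from GlcCer area fraction, normalised between DMSO and ibiglustat controls.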

By IC50 is commonly meant the concentration that gives 50% inhibition.

Where two headings read alike, the source gives them in different places.

glucosylceramide synthase (GCS), sequence (Q16739 whole entry, looked up): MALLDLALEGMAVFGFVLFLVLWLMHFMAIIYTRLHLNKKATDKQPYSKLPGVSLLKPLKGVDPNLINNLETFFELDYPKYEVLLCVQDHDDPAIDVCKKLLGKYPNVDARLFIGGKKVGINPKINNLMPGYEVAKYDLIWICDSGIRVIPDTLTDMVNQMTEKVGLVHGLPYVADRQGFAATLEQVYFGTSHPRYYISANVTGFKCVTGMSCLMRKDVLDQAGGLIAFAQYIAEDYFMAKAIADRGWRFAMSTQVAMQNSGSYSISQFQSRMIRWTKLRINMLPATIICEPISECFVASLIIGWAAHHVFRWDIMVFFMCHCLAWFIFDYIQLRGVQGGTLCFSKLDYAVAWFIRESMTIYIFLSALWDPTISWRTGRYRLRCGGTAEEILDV

In the case of “(S)-quinuclidin-3-yl (2,2-dimethyl-7-(2-(p-tolyl)-1,2,3,4-tetrahydronaphthalen-1-yl)carbamate [Example 163]”, the IC50 in the assay on GM1 production (read-out: IC50) amounted to 55.1 nM; in assay [1], 15.3 nM.

`CN(C)c1cccc(-c2ccc3c(c2)CCC(C)(C)C3NC(=O)O[C@@H]2CN3CCC2CC3)c1` (stereo partly drawn) [Example 131, (S)-quinuclidin-3-yl (6-(3-(dimethylamino)phenyl)-2,2-dimethyl-1,2,3,4-tetrahydronaphthalen-1-yl)carbamate]: the IC50 with GM1 production (Homo sapiens, Jurkat, 72 h) was 2.3 nM; in assay [1], 1.49 nM.

Turning to `COCCOc1cccc(-c2ccc3c(c2)C(NC(=O)O[C@@H]2CN4CCC2CC4)C(C)(C)CC3)c1` (stereo partly drawn) [Example 166, (S)-quinuclidin-3-yl (7-(3-(2-methoxyethoxy)phenyl)-2,2-dimethyl-1,2,3,4-tetrahydronaphthalen-1-yl)carbamate], the half-maximal inhibitory concentration (IC50) in the assay on GM1 production (Homo sapiens, Jurkat, 72 h) amounted to 392 nM; in assay [1], 56.2 nM.

In the case of `O=C(NC1c2cc(-c3ccccc3OC(F)(F)F)ccc2CCC12CC2)O[C@@H]1CN2CCC1CC2` (stereo partly drawn) [Example 182, (S)-quinuclidin-3-yl (7′-(2-(trifluoromethoxy)phenyl)-3′,4′-dihydro-1′H-spiro[cyclopropane-1,2′-naphthalen]-1′-yl)carbamate], the IC50 with GM1 production (Homo sapiens, Jurkat, 72 h) was 40.4 nM; in assay [1], 11.9 nM.

In the case of `COCCOc1cccc(-c2ccc3c(c2)CCCC3NC(=O)O[C@@H]2CN3CCC2CC3)c1` (stereo partly drawn) [Example 27, (S)-quinuclidin-3-yl (6-(3-(2-methoxyethoxy)phenyl)-1,2,3,4-tetrahydronaphthalen-1-yl)carbamate], the IC50 with GM1 production (Homo sapiens, Jurkat, 72 h) is 30.3 nM; in assay [1] it was 2.49 nM.

Consider `COc1ccccc1-c1ccc2c(c1)CCCC2NC(=O)O[C@@H]1CN2CCC1CC2` (stereo partly drawn) [Example 48, (S)-quinuclidin-3-yl (6-(2-methoxyphenyl)-1,2,3,4-tetrahydronaphthalen-1-yl)carbamate], for which the IC50 is 362 nM in the assay on GM1 production (Homo sapiens, Jurkat, 72 h) and 3.02 nM in assay [1].

On to `CC1(C)CCc2ccc(-c3ccccc3OC(F)(F)F)cc2C1NC(=O)O[C@@H]1CN2CCC1CC2` (stereo partly drawn) [Example 162, (S)-quinuclidin-3-yl (2,2-dimethyl-7-(2-(trifluoromethoxy)phenyl)-1,2,3,4-tetrahydronaphthalen-1-yl)carbamate], for which the half-inhibitory concentration (IC50) is 57.4 nM in the assay on GM1 production (Homo sapiens, Jurkat, 72 h) and 10.6 nM in assay [1].

Take `CC1(C)CCc2ccc(-c3cccc(F)c3)cc2C1NC(=O)O[C@@H]1CN2CCC1CC2` (stereo partly drawn) [Example 155, (S)-quinuclidin-3-yl (7-(3-fluorophenyl)-2,2-dimethyl-1,2,3,4-tetrahydronaphthalen-1-yl)carbamate]: the concentration for half-maximal inhibition (IC50) was 108 nM with GM1 production (Homo sapiens, Jurkat, 72 h) and 21 nM in assay [1].

With `O=C(NC1CCCc2ccc(-c3ccc(F)cc3)cc21)O[C@@H]1CN2CCC1CC2` (stereo partly drawn) [Example 55, (S)-quinuclidin-3-yl (7-(4-fluorophenyl)-1,2,3,4-tetrahydronaphthalen-1-yl)carbamate], the half-inhibitory concentration (IC50) was 110 nM in the assay on GM1 production (Homo sapiens, Jurkat, 72 h) and 34.1 nM in assay [1].

For the molecule `CC1(C)CCc2ccc(-c3ccc(C(F)(F)F)cc3)cc2C1NC(=O)O[C@@H]1CN2CCC1CC2` (stereo partly drawn) [Example 153, (S)-quinuclidin-3-yl (2,2-dimethyl-7-(4-(trifluoromethyl)phenyl)-1,2,3,4-tetrahydronaphthalen-1-yl)carbamate], the IC50 came to 5.54 nM in the assay with GM1 production (Homo sapiens, Jurkat, 72 h) and 4.43 nM in assay [1].

For `COCOc1ccc(-c2ccc3c(c2)CCC2(CC2)C3NC(=O)O[C@@H]2CN3CCC2CC3)cc1` (stereo partly drawn) [Example 197, (S)-quinuclidin-3-yl (6′-(4-(methoxymethoxy)phenyl)-3′,4′-dihydro-1′H-spiro[cyclopropane-1,2′-naphthalen]-1′-yl)carbamate], the 50% inhibitory concentration (IC50) is 2.8 nM in the assay with GM1 production (Homo sapiens, Jurkat, 72 h) and 3.13 nM in assay [1].

As for `CCOc1cccc(-c2ccc3c(c2)CCC(C)(C)C3NC(=O)O[C@@H]2CN3CCC2CC3)c1` (stereo partly drawn) [Example 122, (S)-quinuclidin-3-yl (6-(3-ethoxyphenyl)-2,2-dimethyl-1,2,3,4-tetrahydronaphthalen-1-yl)carbamate], the IC50 in the assay with GM1 production (Homo sapiens, Jurkat, 72 h) amounted to 0.774 nM; in assay [1], 3.38 nM.

Consider `CC1(C)CCc2cc(-c3cccc(Cl)c3)ccc2C1NC(=O)O[C@@H]1CN2CCC1CC2` (stereo partly drawn) [Example 91, (S)-quinuclidin-3-yl (6-(3-chlorophenyl)-2,2-dimethyl-1,2,3,4-tetrahydronaphthalen-1-yl)carbamate], for which the concentration for half-maximal inhibition (IC50) in the assay with GM1 production (Homo sapiens, Jurkat, 72 h) turned out to be 2.86 nM; in assay [1], 0.81 nM.

With `Cc1ccc(-c2ccc3c(c2)CCC(C)(C)C3NC(=O)O[C@@H]2CN3CCC2CC3)cc1` (stereo partly drawn) [Example 98, (S)-quinuclidin-3-yl (2,2-dimethyl-6-(p-tolyl)-1,2,3,4-tetrahydronaphthalen-1-yl)carbamate], the half-maximal inhibitory concentration (IC50) in the assay with GM1 production (Homo sapiens, Jurkat, 72 h) was 2.05 nM; in assay [1], 1.7 nM.

For the molecule `CC(C)(C)c1ccc(-c2ccc3c(c2)CCC2(CC2)C3NC(=O)O[C@@H]2CN3CCC2CC3)cc1` (stereo partly drawn) [Example 225, (S)-quinuclidin-3-yl (6′-(4-(tert-butyl)phenyl)-3′,4′-dihydro-1′H-spiro[cyclopropane-1,2′-naphthalen]-1′-yl)carbamate], the IC50 in the assay on GM1 production (Homo sapiens, Jurkat, 72 h) turned out to be 22.4 nM; in assay [1] it was 6.55 nM.

`CC1(C)CCc2cc(-c3ccccc3OC(F)(F)F)ccc2C1NC(=O)O[C@@H]1CN2CCC1CC2` (stereo partly drawn) [Example 97, (S)-quinuclidin-3-yl (2,2-dimethyl-6-(2-(trifluoromethoxy)phenyl)-1,2,3,4-tetrahydronaphthalen-1-yl)carbamate]: the IC50 in the assay with GM1 production (Homo sapiens, Jurkat, 72 h) is 1.39 nM; in assay [1], 0.86 nM.

As for `O=C(NC1c2cc(-c3ccc(OC(F)F)cc3)ccc2CCC12CC2)O[C@@H]1CN2CCC1CC2` (stereo partly drawn) [Example 184, (S)-quinuclidin-3-yl (7′-(4-(difluoromethoxy)phenyl)-3′,4′-dihydro-1′H-spiro[cyclopropane-1,2′-naphthalen]-1′-yl)carbamate], the IC50 is 87 nM in the assay with GM1 production (Homo sapiens, Jurkat, 72 h) and 7.52 nM in assay [1].

Take `COCOc1ccccc1-c1ccc2c(c1)CCC1(CC1)C2NC(=O)O[C@@H]1CN2CCC1CC2` (stereo partly drawn) [Example 199, (S)-quinuclidin-3-yl (6′-(2-(methoxymethoxy)phenyl)-3′,4′-dihydro-1′H-spiro[cyclopropane-1,2′-naphthalen]-1′-yl)carbamate]: the IC50 came to 7.63 nM with GM1 production (Homo sapiens, Jurkat, 72 h) and 7.24 nM in assay [1].

With `COCCOc1ccccc1-c1ccc2c(c1)CCC(C)(C)C2NC(=O)O[C@@H]1CN2CCC1CC2` (stereo partly drawn) [Example 112, (S)-quinuclidin-3-yl (6-(2-(2-methoxyethoxy)phenyl)-2,2-dimethyl-1,2,3,4-tetrahydronaphthalen-1-yl)carbamate], the IC50 in the assay on GM1 production (Homo sapiens, Jurkat, 72 h) worked out at 0.802 nM; in assay [1], 3.75 nM.

With `O=C(NC1c2ccc(-c3cccc(F)c3)cc2CCC12CC2)O[C@@H]1CN2CCC1CC2` (stereo partly drawn) [Example 190, (S)-quinuclidin-3-yl (6′-(3-fluorophenyl)-3′,4′-dihydro-1′H-spiro[cyclopropane-1,2′-naphthalen]-1′-yl)carbamate], the IC50 in the assay on GM1 production (Homo sapiens, Jurkat, 72 h) stood at 19.9 nM; in assay [1], 11.9 nM.

On to `CCOc1ccc(-c2ccc3c(c2)CCC(C)(C)C3NC(=O)O[C@@H]2CN3CCC2CC3)cc1Cl` (stereo partly drawn) [Example 140, (S)-quinuclidin-3-yl (6-(3-chloro-4-ethoxyphenyl)-2,2-dimethyl-1,2,3,4-tetrahydronaphthalen-1-yl)carbamate], for which the IC50 with GM1 production (Homo sapiens, Jurkat, 72 h) was found to be 1.4 nM; in assay [1] it was 1.49 nM.

Take `O=C(NC1CCCc2ccc(-c3ccc(F)cc3F)cc21)O[C@@H]1CN2CCC1CC2` (stereo partly drawn) [Example 65, (S)-quinuclidin-3-yl (7-(2,4-difluorophenyl)-1,2,3,4-tetrahydronaphthalen-1-yl)carbamate]: the IC50 was 95.5 nM in the assay with GM1 production (Homo sapiens, Jurkat, 72 h) and 14.2 nM in assay [1].

For the molecule `CCc1cccc(-c2ccc3c(c2)CCCC3NC(=O)O[C@@H]2CN3CCC2CC3)c1` (stereo partly drawn) [Example 38, (S)-quinuclidin-3-yl (6-(3-ethylphenyl)-1,2,3,4-tetrahydronaphthalen-1-yl)carbamate], the IC50 stood at 316 nM in the assay on GM1 production (Homo sapiens, Jurkat, 72 h) and 1.7 nM in assay [1].

With `O=C(NC1CCCc2cc(-c3ccc(C(F)(F)F)cc3)ccc21)O[C@@H]1CN2CCC1CC2` (stereo partly drawn) [Example 3, (S)-quinuclidin-3-yl (6-(4-(trifluoromethyl)phenyl)-1,2,3,4-tetrahydronaphthalen-1-yl)carbamate], the IC50 with GM1 production (Homo sapiens, Jurkat, 72 h) was 58.7 nM; in assay [1], 2.3 nM.

As for `O=C(NC1c2cc(-c3cccc(OC(F)(F)F)c3)ccc2CCC12CC2)O[C@@H]1CN2CCC1CC2` (stereo partly drawn) [Example 178, (S)-quinuclidin-3-yl (7′-(3-(trifluoromethoxy)phenyl)-3′,4′-dihydro-1′H-spiro[cyclopropane-1,2′-naphthalen]-1′-yl)carbamate], the IC50 in the assay with GM1 production (Homo sapiens, Jurkat, 72 h) is 274 nM; in assay [1], 22.7 nM.

With `O=C(NC1CCCc2ccc(-c3cc(Cl)ccc3Cl)cc21)O[C@@H]1CN2CCC1CC2` (stereo partly drawn) [Example 71, (S)-quinuclidin-3-yl (7-(2,5-dichlorophenyl)-1,2,3,4-tetrahydronaphthalen-1-yl)carbamate], the IC50 with GM1 production (Homo sapiens, Jurkat, 72 h) was determined as 95.4 nM; in assay [1], 22.8 nM.

`Cc1ccc(-c2ccc3c(c2)C(NC(=O)O[C@@H]2CN4CCC2CC4)CCC3)cc1` (stereo partly drawn) [Example 57, (S)-quinuclidin-3-yl (7-(p-tolyl)-1,2,3,4-tetrahydronaphthalen-1-yl)carbamate]: the IC50 in the assay on GM1 production (Homo sapiens, Jurkat, 72 h) was determined as 81.2 nM; in assay [1], 23.4 nM.

`O=C(NC1CCCc2cc(-c3cc(F)ccc3F)ccc21)O[C@@H]1CN2CCC1CC2` (stereo partly drawn) [Example 16, (S)-quinuclidin-3-yl (6-(2,5-difluorophenyl)-1,2,3,4-tetrahydronaphthalen-1-yl)carbamate]: the 50% inhibitory concentration (IC50) in the assay on GM1 production (Homo sapiens, Jurkat, 72 h) came out at 34 nM; in assay [1], 3.96 nM.

In the case of `O=C(NC1CCCc2ccc(-c3ccccc3Cl)cc21)O[C@@H]1CN2CCC1CC2` (stereo partly drawn) [Example 62, (S)-quinuclidin-3-yl (7-(2-chlorophenyl)-1,2,3,4-tetrahydronaphthalen-1-yl)carbamate], the 50% inhibitory concentration (IC50) in the assay on GM1 production (Homo sapiens, Jurkat, 72 h) turned out to be 49.2 nM; in assay [1], 7.37 nM.
